This is an account of results in patent US9415034B2, “Inhibitors and enhancers of uridine diphosphate-glucuronosyltransferase 2B (UGT2B)” (NATIONAL DEFENSE MEDICAL CENTER, priority 2005, dated 2016).

In general, inhibition refers to the relative decrease from the control value, in per cent.

The test system of the data set is UGT2B. Nature of the data set: Measurement of the inhibition of UGT2B activity in vitro (metabolism of nalbuphine in liver microsome, HPLC). To be noted: for inhibition at 60 min, 8.5 μM / inhibition at 60 min, 85 μM / inhibition at 60 min, 850 μM / inhibition at 60 min, 8.5 µM / inhibition at 60 min, 85 µM / inhibition at 60 min, 850 µM / inhibition at 60 min: male, Sprague-Dawley, rat. As for the experimental part:
In the following experiment, 27 different kinds of CHEs and 10 different excipients were used as UGT2B inhibitor in this invention. These CHEs are pure compounds available commercially, and were purchased from Sigma Chemical Co., Nacalai Tesque (Kyoto, Japan) and Indofine Chemical Co., Inc. (Somerville, N.J.). These UGT2B inhibitors are dissolved in alcohol at the concentration of 1, 10, 100 μM for the following experiment.
These excipients are dissolved in water and make up to 0.5%, 5%, 50% (wt %, w/v) for the following experiment. (Note: BRIJ is a registered trademark of ICI Americas, Inc.; Pluronic is a registered trademark of BASF Corporation.)
The Sprague-Dawley male rats, weighted 300-400 g are used as model animals in these experiments. The microsome is prepared as follows: • i. Sacrifice a rat after 12-16 hours fasting, take its liver; wipe dry the liver and weigh it. • ii. Add 300% (by volume) of cold 0.3M sucrose solution, and homogenize the liver. • iii. Centrifuge the homogenized liver suspension at 9000×g speed (KS-800, Kubota, made in Japan) for 10 min at 4° C. Collect the supernatant. • iv. Centrifuge the supernatant at 105,000×g speed (L8-60M, Beckman, made in USA) for 60 min at 4° C. • v. Remove the supernatant, add 0.3M sucrose (of the same volume) and repeat the homogenization. The homogenized liver suspension is the microsome. Store the microsome at −70° C.
Thaw the microsome before use. Add 5 μl/ml BRIJ®35 (Fisher et al. 2000, Drug Metabolism & Disposition. 28(5):560-6) into microsome by a ratio of microsome:BRIJ®35=8:1 (v/v).
The protein amount is determined as follows: • i. Take 0.1 ml microsome and dilute to 5 ml 0.85% NaCl (50-fold dilution, v/v). Take 0.2 ml of the diluted microsome and place it in a capped test tube (triple experiments). Separately, replacing microsome with 0.2 ml NaCl as the control. • ii. Add 2.2 ml Biuret regent (SIGMA, 690-A) into each test tube, mix well and store at room temperature for 10 min. • iii. Add 0.1 ml folin regent (SIGMA, 690-A), mix immediately, and store at room temperature for 30 min. Measure the absorbance at 550 nm wave length within the 30 min. Measure the concentration of protein in microsome based on the standard curve generated by various bovine albumin concentration and absorbance. 4. The Measurement of the Inhibition of UGT2B Activity in vitro • i. […] Mix solution (A) and 17 μl solution (B) thoroughly, place in a 37° C. water bath and shake at 125 rpm for 60 min. • iii. Add 1 ml ACN to interrupt the reaction. • iv. Centrifuge at 130,000×g speed at 4° C. for 5 min, and • v. […] 5.
Set the Ultra-violet detector's (SPD-10A, Shimadzu, Kyoto, made in Japan) wave length to 210 nm.
Those CHEs are commercially available pure compounds, acquired from Sigma Chemical Co., Nacalai Tesque (Kyoto, Japan) and […] (Somerville, N.J.). Their categories, names, sources, and chemical compositions are described in Table 5.
(In general: Microsomes from liver hold many membrane-bound enzymes, among them those of drug oxidation.)

The mark [1] stands for this setting: inhibition rate on the metabolism of nalbuphine in microsome.
Setting [2] is: Table 6, enhancer 8.5 μM, negative = enhancement.
[3] abbreviates: Table 6, enhancer 85 μM, negative = enhancement.
Where [4] appears, read: Table 6, enhancer 850 μM, negative = enhancement.

`CC(C)[C@@H](C)/C=C/[C@@H](C)[C@H]1CC[C@H]2C3=CC=C4C[C@@H](O)CC[C@]4(C)[C@H]3CC[C@]12C` [ergosterol, Ergosterol]: the inhibition at 60 min, 8.5 μM (liver microsomes, probe nalbuphine, % Inhibition (Mean ± SD), Table 6, enhancer 8.5 μM, negative = enhancement) is -12.5 ± 28.9%. Also, under “liver microsomes, probe nalbuphine, % Inhibition (Mean ± SD), Table 6, enhancer 85 μM, negative = enhancement”, the inhibition at 60 min, 85 μM was -28.3 ± 20.3%. Besides, under “liver microsomes, probe nalbuphine, % Inhibition (Mean ± SD), Table 6, enhancer 850 μM, negative = enhancement”, the inhibition at 60 min, 850 μM is -34.6 ± 19.9%.

On to `O=C1CC(c2ccc(O)c(O)c2)Oc2cc(O)cc(O)c21` (stereo not drawn) [eriodictyol, Eriodictyol], for which, for the setting “% Inhibition (Mean ± SD)”, the inhibition at 60 min, 8.5 µM is -1.06 ± 3.71%; the inhibition at 60 min, 8.5 μM was -1.06 ± 3.71%; the inhibition at 60 min, 85 µM was -17.1 ± 2.3%; the inhibition at 60 min, 85 μM is -17.1 ± 2.3%. Under “% Inhibition (Mean ± SD)”, the inhibition at 60 min, 850 µM is 14.1 ± 2.88% and the inhibition at 60 min, 850 μM worked out at 14.1 ± 2.88%. Besides, under setting [1], the inhibition at 60 min was not below 30%.

In the case of `CCCCCCCCCCCCCC(=O)OCC` [ethyl myristate, Ethyl Myristate], under “% Inhibition (Mean ± SD)”, the inhibition at 60 min, 8.5 µM was -27.8 ± 14.7%; the inhibition at 60 min, 8.5 μM is -27.8 ± 14.7%; the inhibition at 60 min, 85 µM was -12.1 ± 5.71%; the inhibition at 60 min, 85 μM is -12.1 ± 5.71%. Further, under “% Inhibition (Mean ± SD)”, the inhibition at 60 min, 850 µM was found to be 6.33 ± 1.48% and the inhibition at 60 min, 850 μM amounted to 6.33 ± 1.48%.

As to `COc1ccc(-c2coc3cc(O)ccc3c2=O)cc1` [formononetin, Formononetin], under “% Inhibition (Mean ± SD)”, the inhibition at 60 min, 8.5 μM was -86.5 ± 3.49%; the inhibition at 60 min, 85 μM was -31.5 ± 4.78%; the inhibition at 60 min, 850 μM is -24.7 ± 4.42%.

As for `O=C(O)c1cc(O)c(O)c(O)c1` [gallic acid, Gallic Acid], where the note is “% Inhibition (Mean ± SD)”, the inhibition at 60 min, 8.5 µM came out at 15.8 ± 4.42%; the inhibition at 60 min, 85 µM was determined as 8.05 ± 3.02%; the inhibition at 60 min, 850 µM was determined as 12.2 ± 4.08%.

Consider `O=c1c(-c2ccc(O)cc2)coc2cc(O)cc(O)c12` [genistein, Genistein], for which the inhibition at 60 min, 8.5 µM came to 15.6 ± 6.05%; the inhibition at 60 min, 8.5 μM came out at 15.6 ± 6.05%; the inhibition at 60 min, 85 µM turned out to be 5.73 ± 6.41%; the inhibition at 60 min, 85 μM is 5.73 ± 6.41%. Also, the inhibition at 60 min, 850 µM is -9.2 ± 5.18% and the inhibition at 60 min, 850 μM was -9.2 ± 5.18%.

In the case of `COc1cc(O)c2c(=O)cc(-c3ccc(O)cc3)oc2c1` [genkwanin], for the setting “% Inhibition (Mean ± SD)”, the inhibition at 60 min, 8.5 μM is -27 ± 4.51%; the inhibition at 60 min, 85 μM is -77.7 ± 20.7%; the inhibition at 60 min, 850 μM is -43.2 ± 18.8%.

On to `CC1(C)[C@@H](O[C@H]2O[C@H](C(=O)O)[C@@H](O)[C@H](O)[C@H]2O[C@@H]2O[C@H](C(=O)O)[C@@H](O)[C@H](O)[C@H]2O)CC[C@]2(C)[C@H]3C(=O)C=C4[C@@H]5C[C@@](C)(C(=O)O)CC[C@]5(C)CC[C@@]4(C)[C@]3(C)CC[C@@H]12` [glycyrrhizin, Glycyrrhizin], for which, under “% Inhibition (Mean ± SD)”, the inhibition at 60 min, 8.5 µM was 9.93 ± 6.66%; the inhibition at 60 min, 8.5 μM stood at 9.93 ± 6.66%; the inhibition at 60 min, 85 µM is -20.3 ± 3.67%; the inhibition at 60 min, 85 μM is -20.3 ± 3.67%. Also, for the setting “% Inhibition (Mean ± SD)”, the inhibition at 60 min, 850 µM is -5.65 ± 6.62% and the inhibition at 60 min, 850 μM is -5.65 ± 6.62%.

On to `COc1ccc(C2CC(=O)c3c(O)cc(O)cc3O2)cc1O` (stereo not drawn) [hesperetin, Hesperetin], for which, under “% Inhibition (Mean ± SD)”, the inhibition at 60 min, 8.5 µM turned out to be 51.7 ± 21.7%; the inhibition at 60 min, 8.5 μM is 51.7 ± 21.7%; the inhibition at 60 min, 85 µM was -59.1 ± 18.9%; the inhibition at 60 min, 85 μM is -59.1 ± 18.9%. Where the note is “% Inhibition (Mean ± SD)”, the inhibition at 60 min, 850 µM is -124 ± 49.4% and the inhibition at 60 min, 850 μM was -124 ± 49.4%. Further, the inhibition at 60 min under setting [1] is not below 30%.

In the case of `COc1ccc([C@@H]2CC(=O)c3c(O)cc(O[C@@H]4O[C@H](CO[C@@H]5O[C@@H](C)[C@H](O)[C@@H](O)[C@H]5O)[C@@H](O)[C@H](O)[C@H]4O)cc3O2)cc1O` [hesperidin, Hesperidin], under “% Inhibition (Mean ± SD)”, the inhibition at 60 min, 8.5 μM came to 2.16 ± 2.73%; the inhibition at 60 min, 85 μM was -32 ± 10.3%; the inhibition at 60 min, 850 μM was -42 ± 4.25%.

Turning to `O=c1cc(-c2ccc(O)c(O)c2)oc2cc(O)c([C@@H]3O[C@H](CO)[C@@H](O)[C@H](O)[C@H]3O)c(O)c12` [homoorientin, Homoorientin], the “% Inhibition (Mean ± SD)” value was −128.53 ± 27.613% under setting [2], −127.21 ± 28.005% under setting [3] and −133.17 ± 26.968% under setting [4].

As for `O=c1c(O[C@@H]2O[C@H](CO)[C@@H](O)[C@H](O)[C@H]2O)c(-c2ccc(O)c(O)c2)oc2cc(O)cc(O)c12` [isoquercitrin, Isoquercitrin], the “% Inhibition (Mean ± SD)” value under setting [2] is on record as −8.089 ± 2.404%, the “% Inhibition (Mean ± SD)” value under setting [3] is reported as −19.119 ± 21.887% and the “% Inhibition (Mean ± SD)” value under setting [4] was −71.696 ± 20.468%.

`COc1cc(-c2oc3cc(O)cc(O)c3c(=O)c2O)ccc1O` [isorhamnetin, Isorhamnetin]: the inhibition at 60 min was not below 30%; the inhibition at 60 min, 8.5 µM is 88.4 ± 11.6%; the inhibition at 60 min, 85 µM turned out to be 85.1 ± 14.7%; the inhibition at 60 min, 850 µM was 107 ± 8.1%.

Consider `O=c1cc(-c2ccc(O)cc2)oc2cc(O)c([C@@H]3O[C@H](CO)[C@@H](O)[C@H](O)[C@H]3O)c(O)c12` [isovitexin, Isovitexin], for which the “% Inhibition (Mean ± SD)” value is 29.821 ± 9.786% (Table 2, inhibitor 8.5 μM, metabolism of nalbuphine in rat liver microsome); −5.528 ± 9.096% (Table 2, inhibitor 85 μM, metabolism of nalbuphine in rat liver microsome); −12.377 ± 8.912% (Table 2, inhibitor 850 μM, metabolism of nalbuphine in rat liver microsome); 29.821 ± 9.786% under setting [2]; −5.528 ± 9.096% under setting [3]; −12.377 ± 8.912% under setting [4].

Regarding `O=c1c(O)c(-c2ccc(O)cc2)oc2cc(O)cc(O)c12` [kaempferol, Kaempferol], where the note is “% Inhibition (Mean ± SD)”, the inhibition at 60 min, 8.5 μM was -19.5 ± 14.2%; the inhibition at 60 min, 85 μM was -76 ± 27.3%; the inhibition at 60 min, 850 μM was -71.1 ± 4.51%.

For `CCCCCCCCCCCCO` [lauryl alcohol, Lauryl Alcohol], for the setting “% Inhibition (Mean ± SD)”, the inhibition at 60 min, 8.5 µM was 14.4 ± 3.37%; the inhibition at 60 min, 85 µM was 19.5 ± 3.46%; the inhibition at 60 min, 850 µM was 6.23 ± 6.75%.

As to `O=C1C[C@@H](c2ccc(O[C@@H]3O[C@H](CO)[C@@H](O)[C@H](O)[C@H]3O)cc2)Oc2cc(O)ccc21` [liquiritin, Liquiritin], under “% Inhibition (Mean ± SD)”, the inhibition at 60 min, 8.5 μM was -9.38 ± 1.8%; the inhibition at 60 min, 85 μM is -17.7 ± 8.51%; the inhibition at 60 min, 850 μM was -29.2 ± 2.74%.

Turning to `O=c1cc(-c2ccc(O)c(O)c2)oc2cc(O)cc(O)c12` [luteolin, Luteolin], where the note is “% Inhibition (Mean ± SD)”, the inhibition at 60 min, 8.5 μM is -25.5 ± 26.6%; the inhibition at 60 min, 85 μM was -28.3 ± 15.2%; the inhibition at 60 min, 850 μM is -17.6 ± 12.1%.

Take `O=c1cc(-c2ccc(O)c(O)c2)oc2cc(O[C@@H]3O[C@H](CO)[C@@H](O)[C@H](O)[C@H]3O)cc(O)c12` [luteolin-7-glucoside, Luteolin-7-Glucoside]: the “% Inhibition (Mean ± SD)” value is on record as −45.053 ± 3.583% under setting [2], −36.109 ± 9.203% under setting [3] and −47.869 ± 26.599% under setting [4].

As to `C[C@@H]1O[C@@H](O[C@H]2[C@H](Oc3cc(O)c4c(c3)O[C@H](c3ccc(O)cc3)CC4=O)O[C@H](CO)[C@@H](O)[C@@H]2O)[C@H](O)[C@H](O)[C@H]1O` [narigin, Narigin], the “% Inhibition (Mean ± SD)” value is reported as −124.10 ± 16.541% under setting [2], −80.70 ± 4.927% under setting [3] and −98.15 ± 5.276% under setting [4].

On to `COc1ccc([C@@H]2CC(=O)c3c(O)cc(O[C@@H]4O[C@H](CO)[C@@H](O)[C@H](O)[C@H]4O[C@@H]4O[C@@H](C)[C@H](O)[C@@H](O)[C@H]4O)cc3O2)cc1O` [neohesperidin, Neohesperidin], for which the “% Inhibition (Mean ± SD)” value was −66.586 ± 9.614% under setting [2], −113.63 ± 8.986% under setting [3] and −113.46 ± 16.721% under setting [4].
